Reference: patent publication US20100069393A1, “METHOD OF TREATMENT AND AGENTS USEFUL FOR SAME” (PRANA BIOTECHNOLOGY LIMITED, priority 2006, published 2010)

Assay: Neurotoxicity assay: MTS viability of primary cortical neuronal cultures
Type: cell-based, mouse
Conditions: BL6Jx129sv, mouse, primary cortical neuronal cultures, Neuronal cells, read-out: Cytotoxicity (% viable at 1 and 10 uM); for viability at 4 days, 1 uM: test compound 1 uM; for viability at 4 days, 10 uM: test compound 10 uM
Experimental: Media was then replaced with Neurobasal media (Invitrogen Life Technologies) and B27 supplements (Invitrogen Life Technologies). Cultures were maintained at 37° C. in 5% CO2. Prior to experimentation, the culture medium was replaced with Neurobasal media and B27 minus antioxidants (Invitrogen Life Technologies).
Cell viability is determined using the MTS assay. Culture medium is replaced with fresh neurobasal medium plus B27 supplements minus antioxidants. 1/10th volume MTS solution (Cell Titre 96 Aqueous One, Promega Corporation) and incubated at 37° C., 2 hrs. 200 microlitre aliquots are measured with a spectrophotometer at 560 nm.
Neuronal cortical cells were cultured for five days as per Assay 2 in NB media and B27 supplement.
On day six the test compounds were added to the neuronal cell cultures in NB media and B27 supplement minus antioxidants.
Test compounds were dissolved in 100% DMSO to a concentration of 2.5 mM (10 mM if excess compound was weighed out per vial—then diluted to 2.5 mM). […] Test compounds were not added directly to cells, instead they were added to a 48 well ‘Drug Plate’ as comprised below:
The Drug Plate was incubated at 37° C. for 15 mins. 200 μl of each well was added in triplicate to the corresponding cell plate. The cell plate was incubated at 37 C, for 4 days.
On completion of the assay, 1/10 volume MTS was added per well of plate (i.e. 25 μl/250 μl). The plates were incubated at 37 C for 2 hrs, and then absorbance was read at 560 nm.

Row | SMILES | viability at 4 days, 1 uM | viability at 4 days, 10 uM
1 | Nc1ccc(O)c2ncccc12 | 108% | 71%
2 | Oc1c(Cl)cc(Cl)c2cccnc12 | 98% | 75%
3 | Oc1c(I)cc(I)c2cccnc12 | 91% | 95%
4 | Oc1c(Br)cc(Br)c2cccnc12 | 100% | 94%
5 | Oc1ccc(Cl)c2cccnc12 | 94% | 85%
6 | Cc1ccc2cccc(O)c2n1 | 98% | 58%
7 | Nc1ccc2cccc(O)c2n1 | 95% | 48%
8 | N#Cc1ccc2cccc(O)c2n1 | 94% | 97%
9 | Cc1cc(C)c2cccnc2c1O | 86% | 85%
10 | Oc1ccc(/C=C/c2ccc3cccc(O)c3n2)cc1 | 100% | 75%
11 | Oc1ccc(CCc2ccc3cccc(O)c3n2)cc1 | 89% | 86%
12 | Oc1c(Br)cc(-c2ccccc2)c2cccnc12 | 100% | 97%
13 | Oc1c(-c2ccccc2)cc(Cl)c2cccnc12 | 93% | 72%
14 | Oc1c(-c2ccccc2)cc(-c2ccccc2)c2cccnc12 | 97% | 26%
15 | COc1cccc(-c2cc(Cl)c3cccnc3c2O)c1 | 83% | 71%
16 | O=[N+]([O-])c1cccc(-c2cc(Cl)c3cccnc3c2O)c1 | 92% | 78%
17 | Oc1c(-c2ccc(F)cc2)cc(Cl)c2cccnc12 | 103% | 75%
18 | Oc1c(-c2cc(F)cc(F)c2)cc(Cl)c2cccnc12 | 90% | 66%
19 | COc1ccc(-c2cc(Cl)c3cccnc3c2O)cc1 | 97% | 31%
20 | Oc1c(-c2ccccc2F)cc(Cl)c2cccnc12 | 96% | 54%
21 | O=Cc1ccccc1-c1cc(Cl)c2cccnc2c1O | 109% | 99%
22 | Oc1c(-c2cccc(F)c2)cc(Cl)c2cccnc12 | 98% | 71%
23 | CN(C)c1ccc(-c2cc(Cl)c3cccnc3c2O)cc1 | 94% | 85%
24 | Cc1ccccc1-c1cc(-c2ccccc2C)c2cccnc2c1O | 93% | 34%
25 | Oc1c(Br)cc(-c2cc(F)cc(F)c2)c2cccnc12 | 95% | 95%
26 | Cc1ccccc1-c1cc(Cl)c2cccnc2c1O | 100% | 100%
27 | Cc1cccc(-c2cc(Cl)c3cccnc3c2O)c1 | 98% | 73%

Row | SMILES | viability at 4 days, 1 uM | viability at 4 days, 10 uM
28 | O=C(NCCc1cnc[nH]1)c1cc(O)c2cccc(O)c2n1 | 100% | 100%
29 | O=C(NCc1ccccn1)c1cc(O)c2cccc(O)c2n1 | 100% | 100%
30 | O=C(O)CNC(=O)c1ccc2cccc(O)c2n1 | 100% | 89%
31 | NCCNC(=O)c1ccc2cccc(O)c2n1 | 106% | 96%
32 | N=C(N)NCc1ccc2cccc(O)c2n1 | 100% | 89%
33 | CC(=O)NCc1ccc2cccc(O)c2n1 | 100% | 91%
34 | NCc1ccc2cccc(O)c2n1 | 101% | 97%
35 | O/N=C/c1ccc2cccc(O)c2n1 | 100% | 95%
36 | Oc1c(-c2cc3ccccc3s2)cc(Cl)c2cccnc12 | 87% | 32%
37 | Oc1c(-c2cc(Cl)c3cccnc3c2O)cc(Cl)c2cccnc12 | 97% | 84%
38 | Oc1c(-c2ccsc2)cc(Cl)c2cccnc12 | 93% | 31%
39 | Oc1c(-c2ccc(F)cc2F)cc(Cl)c2cccnc12 | 90% | 42%
40 | Nc1ccccc1NC(=O)c1cc(O)c2cccc(O)c2n1 | 98% | 82%
41 | O=C(CNC(=O)c1cc(O)c2cccc(O)c2n1)NCCc1c[nH]cn1 | 98% | 89%
42 | O=C(CNC(=O)c1cc(O)c2cccc(O)c2n1)NCc1ccccn1 | 93% | 93%
43 | Oc1cccc2ccc(CNCCc3c[nH]cn3)nc12 | 101% | 43%
44 | CN(CCc1ccccn1)Cc1ccc2cccc(O)c2n1 | 97% | 57%
45 | Oc1cccc2ccc(CNCc3ccccn3)nc12 | 96% | 67%
46 | O=C(O)CNC(=O)c1cc(O)c2cccc(O)c2n1 | 98% | 94%
47 | Cc1nccn1-c1ccc2cccc(O)c2n1 | 104% | 96%
48 | Oc1cccc2ccc(-n3cncn3)nc12 | 102% | 97%
49 | Oc1cccc2ccc(CN(CCc3c[nH]cn3)Cc3nccs3)nc12 | 82% | 34%
50 | Oc1cccc2ccc(CN(Cc3ccccn3)Cc3nccs3)nc12 | 97% | 38%
51 | CSc1ccccc1-c1ccc2cccc(O)c2n1 | 114% | 112%
52 | Oc1cccc2ccc(-c3ccccn3)nc12 | 107% | 75%
53 | Cc1cccc(-c2ccc3cccc(O)c3n2)n1 | 91% | 58%
54 | Oc1cccc2ccc(CN(CCc3c[nH]cn3)Cc3c[nH]cn3)nc12 | 97% | 26%

Row | SMILES | viability at 4 days, 1 uM | viability at 4 days, 10 uM
55 | Oc1cccc2ccc(CN(CCc3c[nH]cn3)Cc3ccccn3)nc12 | 98% | 27%
56 | Oc1cccc2ccc(CN(Cc3ccccn3)Cc3ccccn3)nc12 | 87% | 23%
57 | Oc1cccc2ccc(CN(Cc3ccccn3)Cc3c[nH]cn3)nc12 | 90% | 70%
58 | O=C(c1ccc2cccc(O)c2n1)N(Cc1ccccn1)Cc1ccccn1 | 81% | 79%
59 | CC(=O)Nc1ccc2cccc(O)c2n1 | 93% | 89%
60 | O/N=C/c1ccc2c(Cl)cc(Cl)c(O)c2n1 | 91% | 70%
61 | CO/N=C/c1ccc2c(Cl)cc(Cl)c(O)c2n1 | 77% | 54%
62 | NC(=O)c1ccc2c(Cl)cc(Cl)c(O)c2n1 | 74% | 86%
63 | O=C(O)c1ccc2c(Cl)cc(Cl)c(O)c2n1 | 88% | 80%
64 | O=c1[nH]cnc2c(O)cccc12 | 101% | 89%
65 | Oc1c(Cl)cc(Cl)c2ccc(-c3ccccn3)nc12 | 55% | 31%
66 | CN(c1ccccn1)c1ccc2c(Cl)cc(Cl)c(O)c2n1 | 100% | 59%
67 | Oc1c(Cl)cc(-c2cccnc2)c2cccnc12 | 101% | 84%
68 | Oc1c(Cl)cc(Cl)c2cc(Cl)cnc12 | 82% | 55%
69 | Nc1cnc2c(O)c(Cl)cc(Cl)c2c1 | 94% | 10%
70 | Cc1cnc2c(Cl)cc(Cl)c(O)c2n1 | 100% | 93%
71 | Cc1cnc2c(O)c(Cl)cc(Cl)c2n1 | 94% | 87%
72 | O=c1c2c(Cl)cc(Cl)c(O)c2ncn1CC1CCNCC1 | 97% | 96%
73 | CCCn1c(CNC)nc2c(O)c(Cl)cc(Cl)c2c1=O | 110% | 102%
74 | COc1c(Cl)cc(Cl)c2c(=O)n(N)cnc12 | 99% | 93%
75 | CNCc1ccc2c(Cl)cc(Cl)c(O)c2n1 | 86% | 78%
76 | NCc1ccc2c(Cl)cc(Cl)c(O)c2n1 | 100% | 80%
77 | CCN(CC)Cc1ccc2c(Cl)cc(Cl)c(O)c2n1 | 74% | 70%
78 | Oc1cccc2c(=S)n(Cc3ccccn3)cnc12 | 97% | 90%
79 | CC(Br)CCn1cnc2c(O)c(Cl)cc(Cl)c2c1=O (stereo not shown) | 101% | 73%
80 | CCOC(=O)c1cnc2c(O)c(CC)ncc2c1 | 103% | 92%
